{
  "source": "patent US20250361214A1",
  "about": "“TRIAZINE LIPIDS, LIPID SYNTHESIS, AND METHODS FOR INHIBITING CANONICAL NFKB TRANSCRIPTIONAL ACTIVITY” (University of Kentucky Research Foundation, priority 2022, published 2025)",
  "tested_on": "HeLa cells",
  "assay": "Transfection of luciferase plasmid",
  "assay_type": "cell-based",
  "details": "TZ lipid:DOPE 1:1, compared with naked plasmid",
  "experimental": "Transfection of Luciferase Plasmid and Cell Viability. HeLa cells cultured in EMEM (ATCC) supplemented with 10% fetal bovine serum were transferred to a 96 well plate, in quadruplicate, at a density of 20,000 cells per well and incubated for 24 hours at 37° C. in 5% CO2. Liposomes made with a 1:1 ratio of DOPE and TZ lipid were added to 200 ng pGL3 Luciferase Reporter Vector (Promega) at N:P ratios of 2.5, 5 and 10, and incubated at 37° C. for 10 minutes before being diluted in 100 μL of nonsupplemented EMEM and added to the cells. Following a four hour incubation at 37° C., the media was changed, and the cells were incubated for another twenty hours, at which point the cells were lysed with a cell culture lysis reagent at pH 7.8 composed of 25 mM Tris-phosphate buffer, 0.7 g L^−1 1,2-diaminocyclohexane, 10% glycerol, 1% Triton X-100, and 1% protease inhibitor cocktail (Millipore). Total protein content was determined with a bicinchoninic acid assay (G-Biosciences) and luciferase protein expression was quantified by a luciferase assay (Promega). Cell viability was assessed using a Cell Titer Blue assay kit (Promega) based on the manufacturer's instructions. In each of the three independent experiments performed, transfection was compared with cells treated with Lipofectamine 3000 (Thermo), following the manufacturer's instructions, and with DNA treated cells.",
  "data": [
    {"smiles": "CCCCCCCCCCCCN(CCCCCCCCCCCC)c1nc(NCCCN)nc(NCCCN)n1", "note": "[Lipid 3]", "values": [
      {"measurement": "plasmid transfection (luciferase)", "value": "better efficacy than the lipids with C18 tails"}
    ]}
  ]
}
